Results taken from patent US20120165403A1, “METHODS OF INHIBITING THE ACTIVITY OF HSP90 AND/OR ARYL HYDROCARBON RECEPTOR” (UNIVERSITY OF ROCHESTER, priority 2004, published 2012).

Experiments:
[1] = tested on: TCDD induced luciferase activity (human CYP1A1 promoter); experiment: Luciferase reporter gene assay in HepG2.101L cells; format: cell-based
Procedure: The human hepatoma cell line HepG2 were stably transfected with a luciferase expression vector downstream from exon one, a portion of intron one, and 1612 base pairs of the 5′-flanking sequence of the human CYP1A gene to generate the cell line HepG2.101L, as previously described (Postlind et al., Toxicol. Appl. Pharmacol 118:255-262 (1993), which is hereby incorporated by reference in its entirety). Cells were grown in Dulbecco's modified Eagle's medium (Mediatech Herndon, Va.) supplemented with 10% fetal bovine serum and Gentamicin (DMEM) at 37° C. in a humid atmosphere with 5% CO2. Treatment and reporter gene activity were assessed as previously described (Palermo et al., Chem. Res. Toxicol. 16:865-872 (2003), which is hereby incorporated by reference in its entirety) with the following changes: HepG2.101L cells were added to hydrated Cytodex™ microcarrier beads (Sigma) to achieve 1.5×10^6 cells per 30 mg beads per 10 ml DMEM. Luminescence was detected using the Packard Lumicount™ (Meriden, Conn.).

[2] = tested on: TCDD-mediated CYP1A1 gene induction; experiment: CYP1A1 expression by Western blot in Hepa1c1c7 cells; format: cell-based, mouse
Procedure: Mouse hepatoma cells, Hepa1c1c7 (Hepa), and BP^rCl cells were maintained in modified Eagle's medium (Sigma) supplemented with 10% heat-inactivated fetal bovine serum, sodium pyruvate, L-glutamine, sodium bicarbonate, and Gentamicin (MEM+), at 37° C. in a humid atmosphere with 5% CO2. BP^rCl cells are a derivative of Hepa1c1c7 cells that lack ARNT protein expression and function (Probst et al., Mol. Pharmacol. 44:511-518 (1993), which is hereby incorporated by reference in its entirety). Upon reaching 90% confluency, cells were harvested and homogenized in HEDG buffer (25 mM HEPES, 1.5 mM Na2EDTA, 1 mM dithiothreitol, 10% (v/v) glycerol, pH 7.6) containing protease inhibitors (Roche Applied Science complete mini cocktail tablet, Indianapolis, Ind.). Both Hepa and BP^rC1 cytosols were prepared by centrifugation of the homogenate at 100,000 g for 45 min.
Hepa cells were plated onto 6-well plates at a density of 5×10^5 cells/well and incubated overnight at 37° C. Cells were treated with vehicle (DMSO), TCDD (150 pM), EGCG, or EGCG in the presence of TCDD (150 pM) for 4 hrs. Cells were lysed (0.2% Triton, 5 mM EDTA in PBS) and total protein quantified using the Coomassie Plus Protein Assay Reagent (Pierce, Rockford, Ill.). Protein (30 μg) was separated by SDS-PAGE (7.5% acrylamide resolving gel) and transferred to PVDF membrane (Millipore, Bedford, Mass.). […]

With O=C(O[C@@H]1Cc2c(O)cc(O)cc2O[C@@H]1c1cc(O)c(O)c(O)c1)c1cc(O)c(O)c(O)c1 [EGCG, epigallocatechin gallate] the IC50 ([1]; 500 pM TCDD, 4 h, read-out: IC50, inhibition of TCDD induced luciferase activity) was roughly 100 µM, the “induction of luciferase activity, treatment alone” value ([1]; EGCG alone) was “did not induce luciferase activity significantly over background” and the “CYP1A1 gene induction, treatment alone” value ([2]; EGCG alone, Western blot) was “no effect on CYP1A1 gene induction”. For the same compound, the “inhibition of TCDD-mediated CYP1A1 gene induction” value ([2]; simultaneously with 150 pM TCDD) was “concentration-dependent inhibition”.
